We go through 5 molecules from ChEMBL document CHEMBL1145738, “Peptidyl aldehyde inhibitors of calpain incorporating P2-proline mimetics” (Bioorg Med Chem Lett, 2003).

Non-standard residues stand in square brackets, D forms with d. Residues, ends and D or L forms follow the SMILES beside them. ξ: configuration not given here. *: point of attachment. Tos = Cc1ccc(S(=O)(=O)*)cc1; ξF = NC(Cc1ccccc1)C(=O)O; Pip = O=C(O)[CH]1CCCCN1; Aze = O=C(O)[CH]1CCN1

Assay [1] deals with T1, Calpain small subunit 1 (Sus scrofa, UniProt P04574).
T1 sequence (P04574 whole entry): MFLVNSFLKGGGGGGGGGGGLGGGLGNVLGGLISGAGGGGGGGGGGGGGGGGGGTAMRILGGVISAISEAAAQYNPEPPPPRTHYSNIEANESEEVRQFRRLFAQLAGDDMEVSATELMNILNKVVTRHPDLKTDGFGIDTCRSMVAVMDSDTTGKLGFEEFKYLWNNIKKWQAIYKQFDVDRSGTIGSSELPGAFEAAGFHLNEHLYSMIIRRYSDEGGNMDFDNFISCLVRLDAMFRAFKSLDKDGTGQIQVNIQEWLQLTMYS
Put plainly: Compound tested for inhibition of porcine Calpain 1.

Assay [2] concerns the target T2, Cathepsin B (Homo sapiens, UniProt P07858). Put plainly: Compound tested for inhibition of human liver cathepsin B.
Assay [3] deals with T2, Cathepsin B. As to the kind of experiment: (§1) Selectivity ratio of cathepsin B to calpain I.
Assay [4] has as its target T1, Calpain small subunit 1. As to the kind of experiment: Compound tested for inhibition of porcine calpain I.
A short description of assay [5]: as §1.
The target in assay [6] is T2, Cathepsin B. As to the kind of experiment: Compound tested for inhibition of human liver Cathepsin B.

`Cc1ccc(S(=O)(=O)N2CCSC2C(=O)NC(C=O)Cc2ccccc2)cc1` (stereo not drawn) registered a Ki at Calpain small subunit 1 [1] of 70 nM. That is a double-digit nanomolar value.

As for `Cc1ccc(S(=O)(=O)N[C@@H](CC(C)C)C(=O)NC(C=O)Cc2ccccc2)cc1` (stereo partly drawn) (Tos-Leu-[ξF]-aldehyde), the Ki on Cathepsin B [2] was determined as 70 nM; at Calpain small subunit 1 [4], 20 nM. Moreover, the Selectivity ratio on Cathepsin B [3] came out at 4.

Regarding `Cc1ccc(S(=O)(=O)N2CCCC2C(=O)NC(C=O)Cc2ccccc2)cc1` (stereo not drawn) (Tos-Pro-Phe-aldehyde; configuration not given here), the Ki on Calpain small subunit 1 [1] turned out to be 80 nM; at Cathepsin B [6] it was 12100 nM. The Selectivity ratio in assay [5] worked out at 151.

`Cc1ccc(S(=O)(=O)N2CCC2C(=O)NC(C=O)Cc2ccccc2)cc1` (stereo not drawn) (Tos-[Aze]-Phe-aldehyde; configuration not given here): the inhibition constant Ki was found to be 250 nM at Calpain small subunit 1 [1] and 2750 nM on Cathepsin B [6]. The Selectivity ratio in assay [5] stood at 11.

In the case of `Cc1ccc(S(=O)(=O)N2CCCCC2C(=O)NC(C=O)Cc2ccccc2)cc1` (stereo not drawn) (Tos-[Pip]-Phe-aldehyde; configuration not given here), the Ki at Cathepsin B [2] amounted to 5260 nM; at Calpain small subunit 1 [4], 540 nM. For the same molecule, the Selectivity ratio at Cathepsin B [3] came out at 10.

For orientation: Ki means the equilibrium dissociation constant of an inhibitor or competing ligand from its target.
